According to patent publication US12552835B2, “Composition comprising Regentide-012 or Regentide-013 for improving skin condition” (NINEBIOPHARM CO., LTD., priority 2020, dated 2026):
Where a SMILES comes first, the peptide text is derived from it. Bridges are numbered along the chain shown (N, C = ends).

Key:
Type in all cases: cell-based, human
HaCaT cells [1] = test: Cytotoxicity evaluation (CCK8 cell viability) in epidermal keratinocytes; settings: 5 μM or 10 μM, 48 hours, FBS-free medium
Method: (§1) The cytotoxicities of Regentide-012 and Regentide-013 prepared in Example 1 above were evaluated. Specifically, cytotoxicities were measured in HaCaT cells, which are human epidermal keratinocytes, and CCD-986Sk, which is human fibroblasts. Keratinocytes were dispensed at 3×10^3 cells/well and fibroblasts were dispensed at 5×10^3 cells/well in a 96-well plate, and then cultured in cell culture conditions for 24 hours in a medium containing 10% FBS. After culturing, Regentide-012 and Regentide-013 were added to an FBS-free medium in an amount of 5 μM or 10 μM, and these were cultured for 48 hours. Thereafter, 10 μl per well of CCK8 reaction solution (Dojindo Molecular Technologies, Kumamoto, Japan) was treated and reacted for 4 hours, and then absorbance was measured at 450 nm. The average absorbance value for each sample group was obtained, and the cell viability was evaluated by comparing it with the absorbance values of cells that had not been treated with Regentide-012 and Regentide-013 as a control group.

CCD-986Sk [2] = test: Wound recovery effect of fibroblasts (insert gap migration); settings: 1 and 2.5 μM, FBS-free medium, 16 and 40 hours
Method: (§2) In order to confirm the wound recovery effects of Regentide-012 and Regentide-013, CCD-986sk, which is dermal cells, was attached to a 6-well plate with an adhesive insert (Insert, Ibidi, Wisconsin, USA). The cells were dispensed at 6×10^4 cells/well in each well of the insert, and then cultured in cell culture conditions for 24 hours in a medium containing 2% FBS. Thereafter, the insert was removed and washed once using 1×DPBS. Regentide-034 was added to the medium at various concentrations (0, 1, and 2.5 μM) in an FBS-free medium, and cell images were measured at 100 times using a microscope (Nikon Eclipse E100, Tokyo, Japan) after 16 and 40 hours.

CCD-986Sk [3] = test: Cytotoxicity evaluation (CCK8 cell viability) in fibroblasts; settings: 5 μM or 10 μM, 48 hours, FBS-free medium
Method: as §1

HaCaT cells [4] = test: Epidermal keratinocyte growth promoting efficacy (cell number); settings: 0.5 μM, after 8 days
Method: (§3) In order to confirm the cell proliferation abilities of Regentide-012 and Regentide-013, HaCaT cells, which are epidermal keratinocytes, were dispensed at 1×10^4 cells/well in a 6-well plate, and then cultured for 6 hours in a medium containing 10% FBS. Thereafter, Regentide-012 and Regentide-013 were added at various concentrations (0, 0.1, 0.2, or 0.5 μM) and cultured for 8 days. The medium was replaced with a medium containing Regentide-012 and Regentide-013 in various concentrations every day, and the number of cells was measured at intervals of two days.

HaCaT cells [5] = test: Wound recovery effect of epidermal keratinocytes (insert gap migration); settings: 1 and 2.5 μM, FBS-free medium, 16 and 40 hours
Method: as §2, with “HaCaT cells,” for “CCD-986sk,”, “are epidermal keratinocytes, were” for “is dermal cells, was”, “Regentide-012 and Regentide-013 were” for “Regentide-034 was”, “photographed” for “measured”

CCD986Sk cells = test: Fibroblast growth promoting efficacy (cell number); settings: 0.5 μM, after 8 days
Method: as §3, with “CCD986Sk” for “HaCaT”, “fibroblasts,” for “epidermal keratinocytes,”

Q: For CC[C@H](C)[C@H](NC(=O)[C@H](CCC(N)=O)NC(=O)[C@H](CCC(=O)O)NC(=O)[C@H](CCCCN)NC(C)=O)C(=O)NCC(=O)N[C@@H](CCCCN)C(=O)N[C@H]1CSSC[C@@H](C(=O)N[C@@H](CCCNC(=N)N)C(=O)N[C@@H](CCCNC(=N)N)C(=O)N[C@@H](CCCCN)C(=O)N[C@@H](CCCCN)C(N)=O)NC(=O)[C@H](Cc2c[nH]c3ccccc23)NC(=O)[C@H](CCCCN)NC(=O)[C@H](CCCNC(=N)N)NC(=O)CNC(=O)[C@H](CCCNC(=N)N)NC(=O)[C@H]([C@@H](C)O)NC(=O)[C@H](CO)NC1=O [Regentide-013, Ac-KEQIGKCSTRGRKWCRRKK-NH2] (Ac-KEQIGKCSTRGRKWCRRKK-NH2; disulfide 7-15), which “cytotoxicity to epidermal keratinocytes” value (HaCaT cells [1]) is on record?
A: not toxic

Q: And the “cell numbers and cell migration abilities of fibroblasts” value (CCD-986Sk [2])?
A: increased the cell numbers and cell migration abilities

Q: What about the cytotoxicity to fibroblasts (CCD-986Sk [3]) of the same compound?
A: not toxic

Q: And the “cell growth rate higher than the control group” value (HaCaT cells [4])?
A: 60.8%

Q: And the “cell numbers and cell migration abilities of epidermal keratinocytes” value (HaCaT cells [5])?
A: increased the cell numbers and cell migration abilities

Q: What about the “cell growth rate higher than the control group” value (CCD986Sk cells) of the same compound?
A: 43.9%

Q: CC[C@H](C)[C@H](NC(=O)[C@H](CCC(N)=O)NC(=O)[C@H](CCC(=O)O)NC(=O)[C@@H](N)CCCCN)C(=O)NCC(=O)N[C@@H](CCCCN)C(=O)N[C@H]1CSSC[C@@H](C(=O)N[C@@H](CCCNC(=N)N)C(=O)N[C@@H](CCCNC(=N)N)C(=O)N[C@@H](CCCCN)C(=O)N[C@@H](CCCCN)C(=O)O)NC(=O)[C@H](Cc2c[nH]c3ccccc23)NC(=O)[C@H](CCCCN)NC(=O)[C@H](CCCNC(=N)N)NC(=O)CNC(=O)[C@H](CCCNC(=N)N)NC(=O)[C@H]([C@@H](C)O)NC(=O)[C@H](CO)NC1=O [Regentide-012, KEQIGKCSTRGRKWCRRKK] (H-KEQIGKCSTRGRKWCRRKK-OH; disulfide 7-15) was tested. Which “cytotoxicity to epidermal keratinocytes” value (HaCaT cells [1]) did it give?
A: not toxic

Q: What about the cytotoxicity to fibroblasts (CCD-986Sk [3]) of the same compound?
A: not toxic
